Source: patent publication EP2832223A1, “HERBICIDAL COMPOSITION” (Ishihara Sangyo Kaisha, Ltd., priority 2012, dated 2013)

Columns and labels:
Assay type in all cases: in vivo
[1] = system: common cocklebur (Xanthium strumarium L.); assay: Test Example 1: pot test, foliar treatment, visual growth inhibition; conditions: foliar treatment at 4.3 to 4.8-leaf stage, 22nd day after treatment, read-out: Growth inhibition rate (%) of common cocklebur Measured value
Text: In the present invention, a synergistic effect means a higher herbicidal activity of three active ingredients combined, than the simple sum of the respective herbicidal activities of the three active ingredients (the expected activity). The activity expected by the combination of three active ingredients can be calculated as follows (Colby S.R., "Weed", vol. 15, p. 20-22, 1967). […] Upland field soil was put into a 1/300,000 ha pot, and seeds of common cocklebur (Xanthium strumarium L.) were sown. […] Click, manufactured by BASF) and EC formulation containing dimethenamid-P as an active ingredient (tradename: Spectrum, manufactured by BASF) were diluted with water (in an amount corresponding to 1,000 L/ha) and applied for foliar treatment by a small sprayer. On the 22nd day after treatment, the state of growth of the common cocklebur was visually observed to determine the growth inhibition rate (%) in accordance with the following evalution standard. The growth inhibition rate (%) (measured value) and the growth inhibition rate (%) (calculated value) calculated by the Colby's formula are shown in Table 1.

[2] = system: wild oat (Avena fatua L.); assay: Test Example 2: pot test, soil treatment, visual growth inhibition; conditions: 28th day after treatment, read-out: Growth inhibition rate (%) of wild oat Measured value
Procedure: Upland field soil was put into a 1/500,000 ha pot, and seeds of wild oat (Avena fatua L.) were sown. On the next day, predetermined amounts of ONEHOPE NYUZAI (tradename), Click (tradename) and SC formulation containing mesotrione as an active ingredient (tradename: Callisto, manufactured by Syngenta) were diluted with water (in an amount corresponding to 1,000 L/ha) and applied for soil treatment by a small sprayer.
(§1) On the 28th day after treatment, the state of growth of the wild oat was visually observed to determine the growth inhibition rate (%). The growth inhibition rate (%) (measured value) and the growth inhibition rate (%) calculated in the same manner as in the above Test Example 1 are shown in Table 2.

[3] = system: wild oat (Avena fatua L.); assay: Test Example 4: pot test, soil treatment, visual growth inhibition; conditions: soil treatment, 28th day after treatment, read-out: Growth inhibition rate (%) of wild oat Measured value
Procedure: Upland field soil was put into a 1/1,000,000 ha pot, and seeds of wild oat (Avena fatua L.) were sown. On the next day, predetermined amounts of ONEHOPE NYUZAI (tradename), Click (tradename) and a wettable powder containing bicyclopyrone prepared in accordance with a conventional formulation method were diluted with water (in an amount corresponding to 1,000 L/ha) and applied for soil treatment by a small sprayer.
as §1, with “4.” for “2.”

[4] = system: rostrate sesbania (Sesbania rostrata Bremek. & Oberm.); assay: Test Example 8: pot test, soil treatment, visual growth inhibition; conditions: soil treatment, 28th day after treatment, read-out: Growth inhibition rate (%) of rostrate sesbania Measured value
Procedure: Upland field soil was put into a 1/300,000 ha pot, and seeds of rostrate sesbania (Sesbania rostrata Bremek. & Oberm.) were sown. On the next day, predetermined amounts of ONEHOPE NYUZAI (tradename), Click (tradename), Spectrum (tradename) and Clio (tradename) were diluted with water (in an amount corresponding to 1,000 L/ha) and applied for soil treatment by a small sprayer.
as §1, with “rostrate sesbania” for “wild oat”, “8.” for “2.”

[5] = system: guinea grass (Panicum maximum Jacq.); assay: Test Example 15: pot test, soil and foliar treatment, visual growth inhibition; conditions: Megathyrsus maximus, 31st day after treatment, read-out: Growth inhibition rate (%) of guinea grass Measured value
Procedure: (§2) Upland field soil was put into a 1/1,000,000 ha pot, and seeds of guinea grass (Panicum maximum Jacq.) were sown. When the guinea grass reached 5.2 to 6.0-leaf stage, seeds of guinea grass were further sown in the same pot assuming conditions such that weeds would later grow. On the next day, predetermined amounts of ONEHOPE NYUZAI (tradename), Click (tradename), Spectrum (tradename) and Cadou (tradename) were diluted with water in an amount corresponding to 300 L/ha and applied for soil treatment and for foliar treatment by a small sprayer.
as §1, with “31 st” for “28th”, “guinea grass” for “wild oat”, “15.” for “2.”

[6] = system: velvetleaf (Abutilon theophrasti Medic.); assay: Test Example 16: pot test, soil and foliar treatment, visual growth inhibition; conditions: soil treatment and foliar treatment, 29th day after treatment, read-out: Growth inhibition rate (%) of velvetleaf Measured value
Text: Upland field soil was put into a 1/1,000,000 ha pot, and seeds of velvetleaf (Abutilon theophrasti Medic.) were sown. When the velvetleaf reached 4.0 to 4.3-leaf stage, seeds of velvetleaf were further sown in the same pot assuming conditions such that weeds would later grow. Three days later, predetermined amounts of ONEHOPE NYUZAI (tradename), Click (tradename), Callisto (tradename), Mikado (tradename), a wettable powder containing bicyclopyrone as an active ingredient and Clio (tradename) were diluted with water in an amount corresponding to 300 L/ha and applied for soil treatment and for foliar treatment by a small sprayer.
as §1, with “29th” for “28th”, “velvetleaf” for “wild oat”, “16.” for “2.”

[7] = system: guinea grass (Panicum maximum Jacq.); assay: Test Example 17: pot test, soil and foliar treatment, visual growth inhibition; conditions: Megathyrsus maximus, 29th day after treatment, read-out: Growth inhibition rate (%) of guinea grass Measured value
Procedure: as §2, with “Three days later,” for “On the next day,”, “Click” for “Click (tradename), Spectrum”, “Spectrum” for “Cadou”
as §1, with “29th” for “28th”, “guinea grass” for “wild oat”, “17.” for “2.”

Row | Structure (SMILES) | inhibition at 500 g/ha ([1]; 500 g/ha) | inhibition at 500 g/ha ([2]; 500 g/ha) | inhibition at 500 g/ha ([3]; 500 g/ha) | inhibition at 2000 g/ha ([4]; 2000 g/ha) | inhibition at 400 g/ha ([5]; 400 g/ha) | inhibition at 1200 g/ha ([5]; 1200 g/ha) | inhibition at 500 g/ha ([6]; 500 g/ha) | inhibition at 1000 g/ha ([6]; 1000 g/ha) | inhibition at 500 g/ha ([7]; 500 g/ha) | inhibition at 30 g/ha ([1]; 30 g/ha) | inhibition at 30 g/ha ([2]; 30 g/ha) | inhibition at 30 g/ha ([3]; 30 g/ha) | inhibition at 10 g/ha ([4]; 10 g/ha) | inhibition at 20 g/ha ([5]; 20 g/ha) | inhibition at 60 g/ha ([5]; 60 g/ha) | inhibition at 30 g/ha ([6]; 30 g/ha) | inhibition at 30 g/ha ([7]; 30 g/ha)
1 | CCNc1nc(Cl)nc(NC(C)(C)C)n1 [Terbuthylazine, N^2-tert-butyl-6-chloro-N^4-ethyl-1,3,5-triazine-2,4-diamine] | 10% | 60% | 15% | 0% | 5% | 23% | 15% | 18% | 0% |  |  |  |  |  |  |  | 
2 | COc1cc(OC)nc(NC(=O)NS(=O)(=O)c2ncccc2C(=O)N(C)C)n1 [Nicosulfuron, 2-(4,6-dimethoxypyrimidin-2-ylcarbamoylsulfamoyl)-N,N-dimethylnicotinamide] |  |  |  |  |  |  |  |  |  | 0% | 70% | 30% | 0% | 46% | 83% | 0% | 38%
